Measurements as given in patent US12466840B2, “Small molecule inhibitors of KRAS proteins” (Merck Sharp & Dohme LLC, priority 2023, dated 2025).
Where two headings read alike, the source gives them in different places.

What was measured:
HRAS = HRAS (Homo sapiens (Human), UniProt P01112); test: SOS-catalyzed nucleotide exchange assay (GNE), HRAS-WT; assay type: biochemical; details: TR-FRET, 60 min preincubation
Excerpt: (§1) Procedure for SOS-Catalyzed Nucleotide Exchange Assay for KRAS-WT, G12C/D/V/A/R/S, G13D, Q61H, HRAS-WT, and NRAS-WT
(§2) Recombinant KRAS-G12C protein used in this assay has an additional triple mutation (C51S/C80L/C118S). Whereas KRAS-WT, G12D/V/A/S/R, G13D, Q61H, HRAS and NRAS are in context of their WT protein sequence background. Specifically, the SOS-catalyzed nucleotide exchange assay utilizes a preformed TR-FRET complex containing a specific biotinylated RAS protein (KRAS-WT, G12C/V/D/A/S/R, G13D, Q61H, HRAS-WT, NRAS-WT; described above) with Bodipy-GDP, and Terbium-streptavidin. Compounds are preincubated with this complex for 60 minutes. Subsequently, recombinant human SOS protein and unlabeled GTP are added to initiate the exchange reaction. Small molecule inhibitors stabilize the Bodipy-GDP complex whereas the untreated protein rapidly exchanges Bodipy-GDP for unlabeled GTP resulting in reduced TR-FRET signal.
(§3) To assemble the preformed TR-FRET complexes, each biotinylated RAS protein is diluted to 2 μM in an EDTA Buffer (20 mM HEPES pH 7.5, 50 mM sodium chloride, 10 mM EDTA, and 0.01% Tween) and incubated at room temperature for one hour. This mixture is then further diluted to 90 nM in an Assay Buffer (20 mM HEPES pH 7.5, 150 mM sodium chloride, 10 mM magnesium chloride, and 0.005% Tween) containing 15 nM of Terbium-Streptavidin (Invitrogen, catalog #PV3577) and 900 nM of Bodipy-GDP (Invitrogen, catalog #G22360) and incubated at room temperature for six hours. It should be noted that this preformed TR-FRET complex for each of the RAS protein were made ahead of time, aliquoted and stored at −80° C. until the day of the experiment.
(§4) Each test compound (10 mM stock in DMSO) is diluted in DMSO to make a final-10-point, 3-fold dilution and is acoustically dispensed into a 384-well assay plate (Corning, catalog #3820) using an Echo 550 (Labcyte). Each well of the assay plate receives 3 μL of a specific 3×RAS preformed TR-FRET complex and 3 μL of Assay Buffer and is incubated at room temperature for 60 minutes (preincubation time). Each well then receives 3 μL of 3× recombinant human SOS protein and GTP (Sigma, G8877) in Assay Buffer and is incubated at room temperature for 30 minutes (G13D), 60 minutes (KRAS WT/G12C/D, H/NRAS) or 90 minutes for G12A/R/S/V and Q61H. The final reaction in each well of 9 μL consists of 3 mM GTP, specific Ras and SOS proteins in the following concentrations: KRAS-G12C/SOS=3 nM/40 nM, KRAS-WT and G12D/SOS=1 nM/40 nM, KRAS-G12V/SOS=1.25 nM/160 nM, KRAS-G12A/S/SOS=1 nM/160 nM, KRAS-G12R/SOS=1 nM/320 nM, KRAS-Q61H/SOS=1 nM/320 nM, KRAS-G13D/SOS=1.25 nM/[…], HRAS-WT and NRAS-WT=1.25 nM/40 nM.
(§5) The time-resolved fluorescence resonance energy transfer (TR-FRET) signal is measured on an Envision (PerkinElmer) plate reader: Excitation filter=340 nm; emission1=495 nm; emission2=520 nm; dichroic mirror=D400/D505; delay time=[…]. The signal of each well is determined as the ratio of the emission at 520 nm to that at 495 nm. Percent effect of each well is determined after normalization to control wells containing DMSO (no effect) or a saturating concentration of inhibitor (max effect). The apparent effect as a function of compound concentration is fit to a four-parameter logistic equation.

KRAS G13D = KRAS G13D (Homo sapiens (Human), UniProt P01116, G13D); test: SOS-catalyzed nucleotide exchange assay (GNE), KRAS G13D; assay type: biochemical; details: TR-FRET, 60 min preincubation
KRAS G13D, sequence (P01116 other isoform, or with tags, fused parts or gaps G13D (already in the parent)): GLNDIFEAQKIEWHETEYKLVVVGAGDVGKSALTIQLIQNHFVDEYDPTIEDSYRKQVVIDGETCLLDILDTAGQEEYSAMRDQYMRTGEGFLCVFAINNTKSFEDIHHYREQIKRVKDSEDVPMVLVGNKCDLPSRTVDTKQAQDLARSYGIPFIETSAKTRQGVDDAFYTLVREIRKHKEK
Excerpt: as §1, §2, §3, §4, §5

[1] = system: AsPC-1 cells (homozygous KRAS-G12D); test: Cellular phospho-ERK assay, AsPC-1 cells; assay type: cell-based; details: p-ERK vs. total ERK, read-out: AsPC1 pERK IC50
Description: Procedure for Cellular Phospho-ERK Assay in KRAS Wild Type and Mutant (G12D, G12V) Cell Lines
MKN-1 cells (JCRB JCRB0252) containing amplified wild-type KRAS, were cultured in growth medium that contains RPMI 1640-GlutaMAX™-I (ThermoFisher Scientific 61870) containing 10% heat inactivated fetal bovine serum (ThermoFisher Scientific 10091148), 1 mM sodium pyruvate and 10 mM HEPES. AsPC-1 cells (ATCC® CRL-1682™), containing homozygous KRAS-G12D activating mutation, were cultured in T150 flask in growth medium (RPMI medium 1640-GlutaMAX™-I (ThermoFisher Scientific 61870) containing 10% fetal bovine serum (ThermoFisher Scientific 10091148)). SW620 cells (ATCC® CRL-227™) containing homozygous KRAS-G12V activating mutation, were cultured in growth medium that contains RPMI 1640-GlutaMAX™-I (ThermoFisher Scientific 61870) containing 10% heat inactivated fetal bovine serum (ThermoFisher Scientific 10091148).
Cells for the assay were harvested in growth medium after TrypLE (ThermoFisher scientific 12604021) digestion and were seeded in a 384-well collagen coated cell culture plate (Corning 356702) at a density of 10,000-15,000 cells/[…]/well, and incubated at 37° C., 5% CO2 overnight. The compound (with 10 mM stock concentration) dose-response titrations were prepared [30 μM final ERK detection assay concentration and 1:3 dilutions, 10-point dose response] and appropriate amounts (270 nL) of test compounds were dispensed in a 384-well intermediate plate using an Echo 550 liquid handler. 30 μL/well of RPMI medium 1640-GlutaMAX™-I was added to the intermediate plate and the contents of the intermediate plate (10 μL/well) were then transferred to the 384-well collagen coated cell culture plate, which was incubated at 37° C., 5% CO2 for 2 h. After removal of medium from the collagen coated cell culture plate, cells were lysed in lysis buffer from Alpha SureFire® Ultra™ Multiplex p-ERK and total ERK assay kit (PerkinElmer MPSU-PTERK) containing Halt™ Protease and Phosphatase inhibitor cocktail (ThermoFisher Scientific 78446) at room temperature with constant shaking at 300 rpm for 30 minutes. The cell lysates were then transferred to an OptiPlate-384 plate (PerkinElmer 6005620), and the phosphorylation of ERK (p-ERK) and total ERK levels were detected by Alpha SureFire® Ultra™ Multiplex p-EEK kit and total ERK assay kit (PerkinElmer MPSU-PTERK) following the manufacturer's protocol. Assay plates were read on a EnVision Multimode Plate Reader (PerkinElmer), and the ratio of p-ERK vs. total ERK in each well was used as the final readout. Dose response curves were analyzed using a 4-parameter logistic model to calculate IC50 values using Spotfire software.

KRAS G12S = KRAS G12S (Homo sapiens (Human), UniProt P01116, G12S); test: SOS-catalyzed nucleotide exchange assay (GNE), KRAS G12S; assay type: biochemical; details: TR-FRET, 60 min preincubation
KRAS G12S, sequence (P01116 other isoform, or with tags, fused parts or gaps G12S (already in the parent)): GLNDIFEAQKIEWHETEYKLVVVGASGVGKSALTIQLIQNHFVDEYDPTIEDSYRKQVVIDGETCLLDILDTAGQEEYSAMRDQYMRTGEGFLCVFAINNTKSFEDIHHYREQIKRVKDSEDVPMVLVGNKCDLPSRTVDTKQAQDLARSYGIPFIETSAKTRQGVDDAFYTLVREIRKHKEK
Excerpt: as §1, §2, §3, §4, §5

HRAS, sequence (P01112 other isoform, or with tags, fused parts or gaps): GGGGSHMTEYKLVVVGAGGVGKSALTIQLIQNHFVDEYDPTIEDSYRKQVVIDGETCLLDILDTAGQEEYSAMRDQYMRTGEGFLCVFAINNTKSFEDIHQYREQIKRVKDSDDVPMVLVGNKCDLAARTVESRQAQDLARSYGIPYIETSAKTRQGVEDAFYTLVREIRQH

Row | IC50 ([1]; Homo sapiens, ASPC1, 2 h) [nM] | Compound | IC50 (HRAS) [nM] | IC50 (KRAS G13D) [nM] | IC50 ([1]; 2 h) [nM] | IC50 (KRAS G12S) [nM]
1 | – | F/C=C1/CN2CCC[C@@]2(COc2nc3c4c(nc(-c5c(C6CC6)c(Cl)cc6[nH]ncc56)c(F)c4n2)OC[C@@H]2COCCCN32)C1 [Ex-1, (8aS)-5-(6-chloro-5-cyclopropyl-1H-indazol-4-yl)-4-fluoro-2-(((S,Z)-2-(fluoromethylene)tetrahydro-1H-pyrrolizin-7a(5H)-yl)methoxy)-8a,9,12,13-tetrahydro-8H,11H-7,10-dioxa-1,3,6,13a-tetraazanaphtho[1,8-ab]heptalene] | > 11100 | 3.7 | 5.1 | < 0.69
2 | – | CCc1c(F)ccc2cc3[nH]ncc3c(-c3nc4c5c(nc(OC[C@@]67CCCN6C[C@H](F)C7)nc5c3F)N3CCCOC[C@H]3CO4)c12 [Ex-2, (8aS)-5-(5-ethyl-6-fluoro-1H-benzo[f]indazol-4-yl)-4-fluoro-2-(((2R,7aS)-2-fluorotetrahydro-1H-pyrrolizin-7a(5H)-yl)methoxy)-8a,9,12,13-tetrahydro-8H,11H-7,10-dioxa-1,3,6,13a-tetraazanaphtho[1,8-ab]heptalene] | 2740 | 1 | 7.4 | < 0.69
3 | 15 | Fc1c(-c2c(C3CC3)c(Cl)cc3[nH]ncc23)nc2c3c(nc(OC[C@@]45CCCN4C[C@H](F)C5)nc13)N1CCCOC[C@H]1CO2 [Ex-3, (8aS)-5-(6-chloro-5-cyclopropyl-1H-indazol-4-yl)-4-fluoro-2-(((2R,7aS)-2-fluorotetrahydro-1H-pyrrolizin-7a(5H)-yl)methoxy)-8a,9,12,13-tetrahydro-8H,11H-7,10-dioxa-1,3,6,13a-tetraazanaphtho[1,8-ab]heptalene] | – | – | – | –
4 | 2.2 | CCc1c(F)ccc2cc3[nH]ncc3c(-c3nc4c5c(nc(OC[C@@]67CCCN6C/C(=C\F)C7)nc5c3F)N3CCCOC[C@H]3CO4)c12 [Ex-4, (8aS)-5-(5-ethyl-6-fluoro-1H-benzo[f]indazol-4-yl)-4-fluoro-2-(((S,Z)-2-(fluoromethylene)tetrahydro-1H-pyrrolizin-7a(5H)-yl)methoxy)-8a,9,12,13-tetrahydro-8H,11H-7,10-dioxa-1,3,6,13a-tetraazanaphtho[1,8-ab]heptalene] | 1270 | 0.89 | – | < 0.69
5 | 3.2 | F/C=C1\CN2CCC[C@@]2(COc2nc3c4c(nc(-c5c(C6(F)CC6)c(Cl)cc6[nH]ncc56)c(F)c4n2)OC[C@@H]2COCCCN32)C1 [Ex-5, (8aS)-5-(6-chloro-5-(1-fluorocyclopropyl)-1H-indazol-4-yl)-4-fluoro-2-(((S,Z)-2-(fluoromethylene)tetrahydro-1H-pyrrolizin-7a(5H)-yl)methoxy)-8a,9,12,13-tetrahydro-8H,11H-7,10-dioxa-1,3,6,13a-tetraazanaphtho[1,8-ab]heptalene] | 4680 | 1.2 | – | 0.77
6 | 9.5 | CCc1c(F)ccc2cc3[nH]nc(C)c3c(-c3nc4c5c(nc(OC[C@@]67CCCN6C[C@H](F)C7)nc5c3F)N3CCCOC[C@H]3CO4)c12 [Ex-6, (8aS)-5-(5-ethyl-6-fluoro-3-methyl-1H-benzo[f]indazol-4-yl)-4-fluoro-2-(((2R,7aS)-2-fluorotetrahydro-1H-pyrrolizin-7a(5H)-yl)methoxy)-8a,9,12,13-tetrahydro-8H,11H-7,10-dioxa-1,3,6,13a-tetraazanaphtho[1,8-ab]heptalene] | 5520 | 1.9 | – | 1.2
7 | – | CCc1c(F)ccc2cc3[nH]nc(C)c3c(-c3nc4c5c(nc(OC[C@@]67CCCN6C/C(=C\F)C7)nc5c3F)N3CCCOC[C@H]3CO4)c12 [Ex-7, (8aS)-5-(5-ethyl-6-fluoro-3-methyl-1H-benzo[f]indazol-4-yl)-4-fluoro-2-(((S,Z)-2-(fluoromethylene)tetrahydro-1H-pyrrolizin-7a(5H)-yl)methoxy)-8a,9,12,13-tetrahydro-8H,11H-7,10-dioxa-1,3,6,13a-tetraazanaphtho[1,8-ab]heptalene] | 2180 | 2.4 | 7.1 | 1.3
